What was measured:
Format in all cases: functional
Proline--tRNA ligase = molecular target: T1, Proline--tRNA ligase (Plasmodium falciparum (isolate 3D7), UniProt Q8I5R7); assay: MMV: ProRS recombinant Plasmodium falciparum Prolyl-tRNA-synthetase, assay with yeast tRNA, ATP, and proline and 3 uM MMV malaria box compound, assay read out with kinase glo as % inhibition.
T1 sequence (Q8I5R7 whole entry): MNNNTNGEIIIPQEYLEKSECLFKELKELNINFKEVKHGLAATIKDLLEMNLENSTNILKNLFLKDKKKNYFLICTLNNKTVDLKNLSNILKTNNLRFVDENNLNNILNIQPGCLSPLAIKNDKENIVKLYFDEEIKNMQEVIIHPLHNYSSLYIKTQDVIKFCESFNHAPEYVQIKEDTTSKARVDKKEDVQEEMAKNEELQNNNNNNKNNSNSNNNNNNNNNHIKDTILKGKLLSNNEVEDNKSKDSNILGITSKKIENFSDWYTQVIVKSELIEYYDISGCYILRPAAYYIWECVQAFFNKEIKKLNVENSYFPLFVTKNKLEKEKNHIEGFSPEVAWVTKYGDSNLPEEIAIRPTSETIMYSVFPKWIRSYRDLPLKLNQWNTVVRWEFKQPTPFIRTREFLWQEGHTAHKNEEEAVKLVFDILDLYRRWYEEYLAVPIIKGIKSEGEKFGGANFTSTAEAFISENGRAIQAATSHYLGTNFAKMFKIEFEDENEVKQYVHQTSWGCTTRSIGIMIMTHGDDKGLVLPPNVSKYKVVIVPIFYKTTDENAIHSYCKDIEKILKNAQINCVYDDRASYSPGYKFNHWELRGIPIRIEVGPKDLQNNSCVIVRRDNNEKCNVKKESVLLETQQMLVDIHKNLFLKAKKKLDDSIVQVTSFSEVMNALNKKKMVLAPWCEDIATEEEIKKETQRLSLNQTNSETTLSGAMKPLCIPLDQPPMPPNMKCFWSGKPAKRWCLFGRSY

[1] = molecular target: Calcium-dependent protein kinase 1 (Plasmodium falciparum, UniProt P62344); assay: MMV: CDPK1 Protein kinase inhibition assay using recombinant PfCDPK1, syntide 2 peptide substrate, ATP and KinaseGlo to measure % inhibition at 1 uM MMV box compound.
[2] = molecular target: T2, Calcium-dependent protein kinase 4 (Plasmodium falciparum (isolate 3D7), UniProt Q8IBS5); assay: MMV: CDPK4 Protein kinase inhibition assay using recombinant PfCDPK4, syntide2 peptide substrate, ATP and KinaseGlo to measure % inhibition at 1 uM MMV box compound.
T2 sequence (Q8IBS5 whole entry): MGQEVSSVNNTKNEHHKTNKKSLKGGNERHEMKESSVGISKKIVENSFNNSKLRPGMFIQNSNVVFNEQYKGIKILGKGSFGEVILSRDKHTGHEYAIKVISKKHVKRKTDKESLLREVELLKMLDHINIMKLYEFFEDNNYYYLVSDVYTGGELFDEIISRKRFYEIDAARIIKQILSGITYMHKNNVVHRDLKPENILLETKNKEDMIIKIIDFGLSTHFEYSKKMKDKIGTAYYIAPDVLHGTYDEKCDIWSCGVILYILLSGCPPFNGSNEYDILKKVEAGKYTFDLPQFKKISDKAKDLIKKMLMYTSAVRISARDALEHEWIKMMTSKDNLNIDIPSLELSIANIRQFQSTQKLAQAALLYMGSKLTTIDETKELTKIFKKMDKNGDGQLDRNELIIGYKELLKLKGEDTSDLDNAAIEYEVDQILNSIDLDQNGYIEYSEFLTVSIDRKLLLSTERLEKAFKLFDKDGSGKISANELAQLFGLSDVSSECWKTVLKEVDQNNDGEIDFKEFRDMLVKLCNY

[3] = molecular target: T3, Mitogen-activated protein kinase (Plasmodium falciparum, UniProt Q25917); assay: Final concentrations were 1 uM ATP, 0.5 mM DTT, 1 mM MgCl2, 0.5 mg/mL BSA, and 10 ug/ml MAP2 in a buffer of 50 mM HEPES (pH 7.0). 0.5 mg/mL histone III-S served as the substrate (13); 100 uM AMP-PNP, an ATP analog, was used as a control inhibitor. Incubation time was 4 hours.
T3 sequence (Q25917 whole entry): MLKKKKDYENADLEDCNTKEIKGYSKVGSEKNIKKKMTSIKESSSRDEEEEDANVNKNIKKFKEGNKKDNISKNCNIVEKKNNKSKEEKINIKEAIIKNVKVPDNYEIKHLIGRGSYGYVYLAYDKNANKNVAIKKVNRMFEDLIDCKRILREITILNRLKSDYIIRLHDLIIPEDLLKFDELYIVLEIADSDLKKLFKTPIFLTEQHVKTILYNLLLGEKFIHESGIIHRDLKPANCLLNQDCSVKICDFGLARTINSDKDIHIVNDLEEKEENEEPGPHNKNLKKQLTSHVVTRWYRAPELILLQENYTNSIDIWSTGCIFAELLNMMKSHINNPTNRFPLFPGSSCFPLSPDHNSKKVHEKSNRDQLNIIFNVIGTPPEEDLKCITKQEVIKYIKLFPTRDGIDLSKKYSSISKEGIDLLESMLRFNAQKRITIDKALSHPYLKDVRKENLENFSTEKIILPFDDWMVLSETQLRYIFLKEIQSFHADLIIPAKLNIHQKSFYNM

[4] = molecular target: T4, Putative uncharacterized protein pk7 (Plasmodium falciparum, UniProt O96214); assay: Final concentrations were 1 uM ATP, 2 mM DTT, 20 mM MgCl2, 2 mM MnCl2, 0.01% BSA, and 6 ug/ml PK7, in a buffer of 20 mM Tris-HCl (pH 7.5). The enzyme itself was the only substrate present (since autophosphorylation occurs); 100 uM 1NA-PP1 was used as a control inhibitor. Incubation time was 3 hours.
T4 sequence (O96214 whole entry): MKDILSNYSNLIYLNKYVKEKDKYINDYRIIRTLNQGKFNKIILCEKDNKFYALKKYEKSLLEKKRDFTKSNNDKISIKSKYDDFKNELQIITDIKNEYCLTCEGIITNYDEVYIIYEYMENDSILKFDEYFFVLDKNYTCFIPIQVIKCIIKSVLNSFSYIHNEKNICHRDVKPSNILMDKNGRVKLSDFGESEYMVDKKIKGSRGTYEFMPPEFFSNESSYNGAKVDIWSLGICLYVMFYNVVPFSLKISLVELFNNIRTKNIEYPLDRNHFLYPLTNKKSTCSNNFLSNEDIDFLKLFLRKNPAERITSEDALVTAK

[5] = molecular target: T5, Cdk-related protein kinase 6 (Plasmodium falciparum, UniProt O77239); assay: Final concentrations were 1.5 uM ATP, 5 mM MnCl2, and 15 ug/ml PK6 in a buffer of 100 mM Tris-HCl (pH 7.5). 50 ug/mL MBP was provided as the substrate; 10 uM staurosporine was used as a control inhibitor. Incubation time was 3 hours and 40 minutes.The catalytic activity of each kinase was considered proportional to ATP consumed, as determined from measurements of residual [ATP] with the luciferase-based reagent Kinase-Glo (Promega) following incubation. Luminescence (proportional to residual [ATP]) was measured on the plate readers FLx800 (BioTek Instruments, Winooski, VT, USA) and MicroBeta2.
T5 sequence (O77239 whole entry): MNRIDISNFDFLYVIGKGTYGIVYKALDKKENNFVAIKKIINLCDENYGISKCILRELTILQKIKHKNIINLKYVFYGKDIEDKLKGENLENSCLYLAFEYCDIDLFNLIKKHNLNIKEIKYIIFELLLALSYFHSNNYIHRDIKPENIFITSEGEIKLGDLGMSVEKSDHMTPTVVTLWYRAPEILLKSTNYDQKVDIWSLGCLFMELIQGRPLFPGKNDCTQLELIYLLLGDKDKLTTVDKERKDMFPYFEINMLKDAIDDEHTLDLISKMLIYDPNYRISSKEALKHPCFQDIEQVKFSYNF

Lysine--tRNA ligase = Lysine--tRNA ligase (Plasmodium falciparum (isolate 3D7), UniProt Q8IDJ8); assay: MMV: KRS recombinant Plasmodium falciparum Lysyl-tRNA-synthetase, assay with yeast tRNA, ATP, and lysine and 3 uM MMV malaria box compound, assay read out with kinase glo as % inhibition.
Lysine--tRNA ligase, sequence (Q8IDJ8 whole entry): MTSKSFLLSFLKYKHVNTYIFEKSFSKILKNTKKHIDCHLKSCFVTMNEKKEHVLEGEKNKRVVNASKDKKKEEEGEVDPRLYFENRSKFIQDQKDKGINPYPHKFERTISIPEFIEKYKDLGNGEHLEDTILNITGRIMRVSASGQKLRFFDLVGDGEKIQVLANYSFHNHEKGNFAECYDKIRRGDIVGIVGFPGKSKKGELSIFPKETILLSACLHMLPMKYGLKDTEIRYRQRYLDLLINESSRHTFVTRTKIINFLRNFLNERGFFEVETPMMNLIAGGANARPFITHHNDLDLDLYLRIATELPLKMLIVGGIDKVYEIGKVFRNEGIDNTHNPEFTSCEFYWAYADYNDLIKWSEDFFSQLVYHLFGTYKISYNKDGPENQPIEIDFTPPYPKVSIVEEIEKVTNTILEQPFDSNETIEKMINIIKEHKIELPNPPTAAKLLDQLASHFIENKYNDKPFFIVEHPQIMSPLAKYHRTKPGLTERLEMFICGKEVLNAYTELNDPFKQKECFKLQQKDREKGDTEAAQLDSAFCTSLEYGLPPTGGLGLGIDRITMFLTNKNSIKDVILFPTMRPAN

Calcium-dependent protein kinase 1, sequence (P62344 whole entry): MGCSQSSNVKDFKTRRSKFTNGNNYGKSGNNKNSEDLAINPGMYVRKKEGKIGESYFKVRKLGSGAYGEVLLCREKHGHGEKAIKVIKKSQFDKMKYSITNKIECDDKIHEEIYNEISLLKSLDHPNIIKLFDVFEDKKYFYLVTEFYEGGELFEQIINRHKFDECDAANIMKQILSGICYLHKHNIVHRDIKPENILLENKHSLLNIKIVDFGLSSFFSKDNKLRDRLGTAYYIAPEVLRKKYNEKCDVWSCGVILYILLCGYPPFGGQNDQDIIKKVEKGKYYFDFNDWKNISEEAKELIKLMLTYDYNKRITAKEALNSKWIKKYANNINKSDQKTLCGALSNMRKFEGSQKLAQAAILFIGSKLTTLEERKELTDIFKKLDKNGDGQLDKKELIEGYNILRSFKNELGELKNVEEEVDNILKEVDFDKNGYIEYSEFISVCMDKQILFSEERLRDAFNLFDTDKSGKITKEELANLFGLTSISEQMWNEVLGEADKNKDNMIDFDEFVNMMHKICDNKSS

| SMILES | IC50 (Proline--tRNA ligase) [nM] | IC50 [1] [nM] | IC50 [2] [nM] | IC50 [3] [nM] | IC50 [4] [nM] | IC50 [5] [nM] | IC50 (Lysine--tRNA ligase) [nM] |
| --- | --- | --- | --- | --- | --- | --- | --- |
| Oc1ccc(-c2nc(-c3ccc4oc5ccc(-c6[nH]c(-c7ccc(O)cc7)nc6-c6ccccc6)cc5c4c3)c(-c3ccccc3)[nH]2)cc1 | > 2500 | > 1000 | > 1000 | > 1000 | > 1000 | > 1000 | > 2500 |
| COc1ccc(CN2CCN(Cc3ccccc3)CC2)c(O)c1 | > 2500 | > 1000 | > 1000 | > 1000 | > 1000 | > 1000 | > 2500 |
| CCOC(=O)c1cn(CC)c2cc(N(C)CCc3ccc(OC)c(OC)c3)c(F)cc2c1=O | > 2500 | > 1000 | > 1000 | > 1000 | > 1000 | > 1000 | > 2500 |
| Cc1cc(N2CCN(C3CCCC3)CC2)n2c(nc3ccccc32)c1C#N | > 2500 | > 1000 | > 1000 | > 1000 | > 1000 | > 1000 | > 2500 |
| CC1CC2=C(CC1CNCCCN(C)C)C(C)(C)CCC2 (stereo not given) | > 2500 | > 1000 | > 1000 | > 1000 | > 1000 | > 1000 | > 2500 |
| Oc1ccccc1CN1CCC2(CCCN(Cc3ccccc3F)C2)C1 (stereo not given) | > 2500 | > 1000 | > 1000 | > 1000 | > 1000 | > 1000 | > 2500 |
| CCOC(=O)c1c(C)n(-c2ccccc2)c2ccc(OC(=O)c3cc(OC)c(OC)c(OC)c3)cc12 | > 2500 | > 1000 | > 1000 | > 1000 | > 1000 | > 1000 | > 2500 |
| Cc1ccc(Cl)cc1N1CCN(CCCNC(=O)C2CCN(c3nc4ccccc4[nH]3)CC2)CC1 | > 2500 | > 1000 | > 1000 | > 1000 | > 1000 | > 1000 | > 2500 |
| CCCc1c(C)nc2ccc(Br)cc2c1O | > 2500 | > 1000 | > 1000 | > 1000 | > 1000 | > 1000 | > 2500 |
| COc1ccc2sc(N(Cc3cccnc3)C(=O)c3ccc(C#N)cc3)nc2c1 | > 2500 | > 1000 | > 1000 | > 1000 | > 1000 | > 1000 | > 2500 |
| Cc1cccc(N2C(=O)C3C(C2=O)C2(c4ccccc4)C(=O)C3(c3ccccc3)C(c3ccc4c(c3)OCO4)=C2c2ccc3c(c2)OCO3)c1 (stereo not given) | > 2500 | > 1000 | > 1000 | > 1000 | > 1000 | > 1000 | > 2500 |
| CCCCOc1ccc(C(=O)Nc2cc(C)on2)cc1 | > 2500 | > 1000 | > 1000 | > 1000 | > 1000 | > 1000 | > 2500 |
| c1ccc2c(NCCCCCCNc3c4c(nc5ccccc35)CCCC4)c3c(nc2c1)CCCC3 | > 2500 | > 1000 | > 1000 | > 1000 | > 1000 | > 1000 | > 2500 |
| O=C(NCc1ccco1)C1CCN(S(=O)(=O)c2ccc(Br)cc2)CC1 | > 2500 | > 1000 | > 1000 | > 1000 | > 1000 | > 1000 | > 2500 |
| Cc1cc(NC(=O)c2cccc(C(F)(F)F)c2)n(-c2nc(-c3ccc4c(c3)OCO4)cs2)n1 | > 2500 | > 1000 | > 1000 | > 1000 | > 1000 | > 1000 | > 2500 |
| CCCc1c(C)nc2ccccc2c1O | > 2500 | > 1000 | > 1000 | > 1000 | > 1000 | > 1000 | > 2500 |
| O=C(Nc1ccc(C23CC4CC(CC(c5ccccc5)(C4)C2)C3)cc1)c1cccs1 | > 2500 | > 1000 | > 1000 | > 1000 | > 1000 | > 1000 | > 2500 |
| COCCNC(=O)c1ccc(OC2CCN(Cc3ccc(F)c(F)c3)CC2)c(Cl)c1 | > 2500 | > 1000 | > 1000 | > 1000 | > 1000 | > 1000 | > 2500 |
| O=c1cc(NC2CCN(CCCc3ccccc3)CC2)c2cc(Cl)ccc2o1 | > 2500 | > 1000 | > 1000 | > 1000 | > 1000 | > 1000 | > 2500 |
| O=C(CSc1ccc2nnc(-c3cccc(F)c3)n2n1)Nc1ccc2c(c1)OCO2 | > 2500 | > 1000 | > 1000 | > 1000 | > 1000 | > 1000 | > 2500 |

Source: ChEMBL document CHEMBL3301562, “MMV Box screening against Plasmodium falciparum protein kinases and aminoacyl tRNA synthetases”
